Legend:
[1] = system: diabetic mice induced by STZ; assay: Blood glucose of diabetic mice induced by streptozotocin (STZ); format: in vivo; conditions: blood on 11th day, STZ 150 mg/kg i.p.
Description: Sixty male NIH mice (weighed 18-22 g) are randomly divided to control, model, 50, 150, 450 mg/kg 6-mer-treated and 5 mg/kg dimethyldiguanide-treated groups. The mice are injected intraperitoneally with 150 mg/kg STZ except control group at the 1st day. Then the mice are given accordingly drugs consecutively for 10 days and eyeballs are picked out to extract blood on the 11th day. The blood is taken to measure the glucose concentration.

[2] = system: GSH-PX; assay: GSH-PX activity in cerebral cortex and hippocampus of Aβ1-40-induced AD mice; format: in vivo
Description: Following the behavioral test, rats are decapitated. Cerebral cortex and hippocampus are dissected on ice immediately, and stored at −80° C. after quick freezing in liquid nitrogen for 1 hour. MDA, SOD, GSH-PX, Na^+, K^+-ATPase, AchE and CHAT activities in the brain regions are determined using the respective kits. The homogenates of cerebral cortex and hippocampus are prepared with saline with a final concentration of 10% and 5%. The supernatant were obtained after centrifuging at 3600 rpm to test MDA, CuZn-SOD, GSH-PX, Na^+K^+-ATPase, AchE, and CHAT activities. The activity of ChAT is determined with isotope-labeled method. The other indexes and amount of total proteins are tested with the respective kits supplied by Nanjing Jiancheng Bioengineering Institute.
The GSH-PX activity in cerebral cortex and hippocampus is decreased after usage of Aβ with significant difference to the control group in hippocampus (p<0.05).

[3] = system: ChAT; assay: Cerebral cortex ChAT activity of Aβ1-40-induced AD mice; format: in vivo
[4] = system: primary cerebral cortex neurons of rat; assay: Protection of primary neurons impaired by aged Aβ25-35 (MTT); format: cell-based; conditions: 30 μM aged Aβ25-35 24 h, Aβ alone 54.5±8.9%
Description: The primary cerebral cortex neurons of rat are cultured as the method of reference (Banker G A, et al., Rat hippocampal neurons in dispersed cell culture. Brain Res, 1977, 126:397-425). The cells cultured for 1 week are used in this experiment. That is to say, on the 8th day the cells are pretreated with a series of concentrations of 6-mer (final concentration of 0, 10, 50, 100 μg/ml) for 24 h, followed by the addition of aged Aβ25-35 (Firstly resolved in distilled water with a concentration of 1 mg/ml, then stayed at 37° C. for 7 days to get aged Aβ25-35 and stored at −20° C. for use) with a final concentration of 30 μM. After 24 h at 37° C., 10 μl of MTT with a concentration of 5 mg/ml is added. After 4 h at 37° C., the supernatant is removed and 150 μl of DMSO is added. Then the absorbance at 570 nm (630 nm as reference) is recorded with an ELISA reader (Rainbow, TECAN, Austria).

[5] = system: SH-SY5Y cells; assay: Protection of SH-SY5Y cells impaired by Aβ25-35 and Aβ1-40; format: cell-based; conditions: 50 and 100 μg/ml; 30 μM aged Aβ25-35 or 2 μM Aβ1-40 for 48 h (FIG. 7, 8)
Description: 6-mer has similar protective effects on neuron cell line SH-SY5Y as the primary neurons. SH-SY5Y impaired with 30 μM of aged Aβ25-35 (FIG. 7) and 2 μM of Aβ1-40 (FIG. 8) for 48 h could induce a series of changes, for example, damage to the cells, reduced number of cells, occurrence of some round cells and suspension cells. Further, the survival rate of the cells is reduced to 73.3±9.4% and 64.1±2.5% respectively.

[6] = system: AD mice induced by Aβ1-40; assay: Step-through passive avoidance task of AD mice induced by Aβ1-40; format: in vivo
Description: Male Balb/c mice (18-22 g, purchased from Laboratory Centre of Shandong University) are weighed and randomly assigned to six groups as follows: a control group, a model group, a low-concentration (15 mg/kg) 6-mer-treated group, a middle-concentration (30 mg/kg) 6-mer-treated group, a high-concentration (60 mg/kg) 6-mer-treated group, and a Huperzine A-treated (HBY, with a concentration of 0.2 mg/kg) group. The mice were oral administered with corresponding drugs on day 3 after grouping. The drugs were administered once a day consecutively with a dosage of 0.5 ml/20 g until the experiment is completed. The mice of control and model groups were simultaneously administered with an equivalent amount of normal saline.
On the 25th day after Aβ injection, mice are further trained for step-through passive avoidance task. In the task, each mouse is placed in the illuminated compartment of the apparatus, facing away from the dark compartment, and the door is opened, allowing access to the dark compartment. Once the mouse enters the dark compartment, it receives an inescapable electric shock on the feet (36 V) through the stainless steel grid floor. The test is similarly performed after 24 h. The entry time of each mouse into the dark chamber (step-through latency, maximum testing limited to 3 min) and the number of entries into the dark compartment (number of errors) are recorded.
Each group has 8 animals. The data are presented as mean±SE. The symbol # means significant difference compared with the control group (P<0.05). * means significant difference compared with the model group (P<0.05). The step-through latency of Aβ1-40-treated group is shortened (P<0.01) and the error number is increased (P<0.05) compared with that of the control group, indicating the successful establishment of AD mice.

O=C(O)C1OC(OC2C(C(=O)O)OC(OC3C(C(=O)O)OC(OC4C(C(=O)O)OC(OC5C(C(=O)O)OC(OC6C(C(=O)O)OC(O)C(O)C6O)C(O)C5O)C(O)C4O)C(O)C3O)C(O)C2O)C(O)C(O)C1O (stereo not drawn) [6-mer, mannuronic hexasaccharide]
Blood glucose concentration ([1]; 50 mg/kg for 10 days): 219.4 ± 67.8 mg/dL | Blood glucose concentration ([1]; 150 mg/kg for 10 days): 179.6 ± 69.8 mg/dL | Blood glucose concentration ([1]; 450 mg/kg for 10 days): 162.5 ± 3 mg/dL | GSH-PX (U/mg prot.) cerebral cortex ([2]; 15 mg/kg): 8.53 ± 0.86 U/mg prot. | GSH-PX (U/mg prot.) cerebral cortex ([2]; 30 mg/kg): 7.12 ± 1.10 U/mg prot. | GSH-PX (U/mg prot.) cerebral cortex ([2]; 60 mg/kg): 10.75 ± 1.80 U/mg prot. | GSH-PX (U/mg prot.) hippocampus ([2]; 15 mg/kg): 4.13 ± 0.58 U/mg prot. | GSH-PX (U/mg prot.) hippocampus ([2]; 30 mg/kg): 4.25 ± 0.54 U/mg prot. | GSH-PX (U/mg prot.) hippocampus ([2]; 60 mg/kg): 4.81 ± 0.95 U/mg prot. | ChAT activity (pmol/mg prot./min) ([3]; 15 mg/kg): 90.94 ± 3.77 pmol/mg prot./min | ChAT activity (pmol/mg prot./min) ([3]; 30 mg/kg): 99.98 ± 5.07 pmol/mg prot./min | ChAT activity (pmol/mg prot./min) ([3]; 60 mg/kg): 94.69 ± 5.83 pmol/mg prot./min | survived rate ([4]; 10 μg/ml 6-mer 24 h pretreatment): 72.0±11.2% | survived rate ([4]; 50 μg/ml 6-mer 24 h pretreatment): 77.1±8.1% | survived rate ([4]; 100 μg/ml 6-mer 24 h pretreatment): 82.3±11.6% | neurotoxicity of Aβ (survival rate, suspension cells) [5]: significantly inhibit the neurotoxicity of Aβ | number of errors ([6]; 6-mer-treated groups, vs model group (FIG. 6)): significantly reduced | step-through latency ([6]; 30 and 60 mg/kg 6-mer, vs model group (FIG. 5)): significantly prolonged

From US8835403B2, “Algin oligosaccharides and the derivatives thereof as well as the manufacture and the use of the same” (priority 2004, dated 2014)
